{"source": "ChEMBL document CHEMBL5370544", "about": "“Design, synthesis, and biological evaluation of 1-styrenyl isoquinoline derivatives for anti-hepatocellular carcinoma activity and effect on mitochondria” (Eur J Med Chem, 2023)", "key": {"[1]": {"tested_on": "HCCLM9", "assay": "Antiproliferative activity against human HCCLM9 cells assessed as inhibition of cell growth measured after 72 hrs by MTT assay", "format": "functional, cell-based", "conditions": "HCCLM9, 72 h"}, "[2]": {"tested_on": "SK-HEP1", "assay": "Antiproliferative activity against human SK-HEP1 cells assessed as inhibition of cell growth measured after 72 hrs by MTT assay", "format": "functional, cell-based"}, "[3]": {"tested_on": "Huh-7", "assay": "Antiproliferative activity against human Huh-7 cells assessed as inhibition of cell growth measured after 72 hrs by MTT assay", "format": "functional, cell-based"}, "[4]": {"tested_on": "Huh-7", "assay": "Antiproliferative activity against human Huh-7 cells assessed as inhibition of cell growth upto 2 uM by MTT assay", "format": "functional, cell-based", "conditions": "time 72.0 hrs, TDE = time-dependent effect"}, "[5]": {"tested_on": "Huh-7", "assay": "Inhibition of colony formation in human Huh-7 cells assessed as reduction in number of cell colonies at 0.55 to 2.2 uM measured after 10 and 14 days by crystal violet staining based light microscopic analysis", "format": "functional", "conditions": "dose 0.55-2.2 µM, time 14.0 day"}, "[6]": {"tested_on": "SK-HEP1", "assay": "Antiproliferative activity against human SK-HEP1 cells assessed as reduction in ratio of EdU-positive cells measured after 24 hrs by EdU incorporation assay", "format": "functional, cell-based", "conditions": "dose 1.25-5 µM"}, "[7]": {"tested_on": "SK-HEP1", "assay": "Induction of cell cycle arrest in human SK-HEP1 cells assessed as decrease in accumulation of cells at G0/G1 phase incubated for 24 hrs by propidium iodide staining based flow cytometry analysis", "format": "functional", "conditions": "dose 1.5-13.5 µM"}, "[8]": {"tested_on": "Huh-7", "assay": "Induction of cell cycle arrest in human Huh-7 cells assessed as decrease in cyclin A expression incubated for 48 hrs by Western blotting analysis", "format": "functional, cell-based", "conditions": "dose 0.9-8.1 µM"}, "[9]": {"tested_on": "SK-HEP1", "assay": "Induction of cell cycle arrest in human SK-HEP1 cells assessed as decrease in CDK1 expression incubated for 48 hrs by Western blotting analysis", "format": "functional, cell-based", "conditions": "dose 1.5-13.5 µM"}, "[10]": {"tested_on": "SK-HEP1", "assay": "Inhibition of cell migration in human SK-HEP1 cells incubated for 24 hrs by scratch wound healing assay", "format": "functional, cell-based", "conditions": "dose 1.25-5 µM"}, "[11]": {"tested_on": "Huh-7", "assay": "Inhibition of cell migration in human Huh-7 cells at 0.55 to 2.2 uM incubated for 24 hrs by crystal violet staining based transwell migration assay", "format": "functional", "conditions": "dose 0.55-2.2 µM"}, "[12]": {"tested_on": "SK-HEP1", "assay": "Inhibition of cell migration in human SK-HEP1 cells at 1.25 to 5 uM incubated for 24 hrs by crystal violet staining based transwell migration assay", "format": "functional", "conditions": "dose 1.25-5 µM"}, "[13]": {"tested_on": "Huh-7", "assay": "Antimigratory activity against human Huh-7 cells assessed as up-regulation of E-cadherin expression at 0.55 to 2.2 uM incubated 24 hrs by Western blotting analysis", "format": "functional, cell-based", "conditions": "dose 0.55-2.2 µM"}, "[14]": {"tested_on": "Huh-7", "assay": "Antimigratory activity against human Huh-7 cells assessed as down-regulation of N-cadherin expression at 0.55 to 2.2 uM incubated 24 hrs by Western blotting analysis", "format": "functional, cell-based", "conditions": "dose 0.55-2.2 µM"}, "[15]": {"tested_on": "Huh-7", "assay": "Induction of apoptosis in human Huh-7 cells assessed as cell membrane blebbing at 0.9 to 8.1 uM incubated for 24 hrs by giemsa staining based micrscopic analysis", "format": "functional", "conditions": "dose 0.9-8.1 µM"}, "[16]": {"tested_on": "Huh-7", "assay": "Induction of apoptosis in human Huh-7 cells assessed as chromatin condensation at 0.9 to 8.1 uM incubated for 24 hrs by giemsa staining based micrscopic analysis", "format": "functional, cell-based", "conditions": "dose 0.9-8.1 µM"}, "[17]": {"tested_on": "Huh-7", "assay": "Induction of apoptosis in human Huh-7 cells assessed as nuclear membrane breakdown at 0.9 to 8.1 uM incubated for 24 hrs by giemsa staining based micrscopic analysis", "format": "functional, cell-based", "conditions": "dose 0.9-8.1 µM"}, "[18]": {"tested_on": "SK-HEP1", "assay": "Induction of apoptosis in human SK-HEP1 cells assessed as chromatin condensation at 1.5 to 13.5 uM incubated for 24 hrs by giemsa staining based micrscopic analysis", "format": "functional, cell-based", "conditions": "dose 1.5-13.5 µM"}, "[19]": {"tested_on": "SK-HEP1", "assay": "Induction of apoptosis in human SK-HEP1 cells assessed as formation of apoptotic bodies at 1.5 to 13.5 uM incubated for 24 hrs by giemsa staining based micrscopic analysis", "format": "functional, cell-based", "conditions": "dose 1.5-13.5 µM"}, "[20]": {"tested_on": "SK-HEP1", "assay": "Induction of apoptosis in human SK-HEP1 cells assessed as increase in proportion of early apoptosis at 1.5 to 13.5 uM incubated for 24 hrs by Annexin V-AbFluor 488/propidium iodide staining based flow cytometry analysis", "format": "functional, cell-based", "conditions": "dose 1.5-13.5 µM"}, "[21]": {"tested_on": "Huh-7", "assay": "Induction of ROS production in human Huh-7 cells assessed as increase in intracellular ROS level at 0.9 to 8.1 uM incubated for 24 hrs by DCFH-DA staining based fluorescence assay", "format": "functional, cell-based", "conditions": "dose 0.9-8.1 µM"}, "[22]": {"tested_on": "Huh-7", "assay": "Induction of apoptosis in human Huh-7 cells assessed as inhibition of Bcl-2 expression incubated for 48 hrs by Western blotting analysis", "format": "functional, cell-based", "conditions": "dose 0.9-8.1 µM"}, "[23]": {"tested_on": "Huh-7", "assay": "Induction of apoptosis in human Huh-7 cells assessed as increase in cleaved caspase-3 expression at 0.9 to 8.1 uM incubated for 48 hrs by Western blotting analysis", "format": "functional, cell-based", "conditions": "dose 0.9-8.1 µM"}, "[24]": {"tested_on": "SK-HEP1", "assay": "Induction of apoptosis in human SK-HEP1 cells assessed as inhibition of caspase-3 expression incubated for 48 hrs by Western blotting analysis", "format": "functional, cell-based", "conditions": "dose 1.5-13.5 µM"}, "[25]": {"tested_on": "SK-HEP1", "assay": "Induction of apoptosis in human SK-HEP1 cells assessed as increase in cleaved caspase-3 expression at 1.5 to 13.5 uM incubated for 48 hrs by Western blotting analysis", "format": "functional, cell-based", "conditions": "dose 1.5-13.5 µM"}, "[26]": {"target": "T1, Serine/threonine-protein kinase AKT (Homo sapiens) (UniProt P31751+Q9Y243+P31749)", "T1 sequence (P31749 whole entry, looked up)": "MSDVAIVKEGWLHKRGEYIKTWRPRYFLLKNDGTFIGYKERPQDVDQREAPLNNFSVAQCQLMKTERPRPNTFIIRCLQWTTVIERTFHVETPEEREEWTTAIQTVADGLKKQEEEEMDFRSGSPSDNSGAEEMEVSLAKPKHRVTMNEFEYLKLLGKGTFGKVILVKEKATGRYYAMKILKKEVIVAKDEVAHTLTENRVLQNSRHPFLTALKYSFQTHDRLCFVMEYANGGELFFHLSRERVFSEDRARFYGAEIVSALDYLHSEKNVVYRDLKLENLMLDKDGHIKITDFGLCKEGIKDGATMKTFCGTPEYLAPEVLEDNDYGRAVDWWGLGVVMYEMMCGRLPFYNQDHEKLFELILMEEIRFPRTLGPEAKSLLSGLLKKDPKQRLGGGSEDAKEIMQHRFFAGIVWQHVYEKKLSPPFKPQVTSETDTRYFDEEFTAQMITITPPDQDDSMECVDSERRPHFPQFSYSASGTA", "T1 sequence (P31751 whole entry, looked up)": "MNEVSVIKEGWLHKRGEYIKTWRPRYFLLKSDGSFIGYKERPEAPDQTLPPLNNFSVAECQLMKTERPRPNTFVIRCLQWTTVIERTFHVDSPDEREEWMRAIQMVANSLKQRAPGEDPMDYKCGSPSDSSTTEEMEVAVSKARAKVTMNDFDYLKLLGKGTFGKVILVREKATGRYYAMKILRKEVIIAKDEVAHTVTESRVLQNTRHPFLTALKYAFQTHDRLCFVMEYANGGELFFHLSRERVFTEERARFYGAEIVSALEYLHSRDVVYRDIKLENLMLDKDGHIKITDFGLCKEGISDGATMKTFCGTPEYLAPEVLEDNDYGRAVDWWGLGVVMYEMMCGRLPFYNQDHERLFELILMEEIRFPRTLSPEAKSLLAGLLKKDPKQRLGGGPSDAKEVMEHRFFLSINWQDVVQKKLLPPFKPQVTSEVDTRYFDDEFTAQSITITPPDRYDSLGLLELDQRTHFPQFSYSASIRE", "T1 sequence (Q9Y243 whole entry, looked up)": "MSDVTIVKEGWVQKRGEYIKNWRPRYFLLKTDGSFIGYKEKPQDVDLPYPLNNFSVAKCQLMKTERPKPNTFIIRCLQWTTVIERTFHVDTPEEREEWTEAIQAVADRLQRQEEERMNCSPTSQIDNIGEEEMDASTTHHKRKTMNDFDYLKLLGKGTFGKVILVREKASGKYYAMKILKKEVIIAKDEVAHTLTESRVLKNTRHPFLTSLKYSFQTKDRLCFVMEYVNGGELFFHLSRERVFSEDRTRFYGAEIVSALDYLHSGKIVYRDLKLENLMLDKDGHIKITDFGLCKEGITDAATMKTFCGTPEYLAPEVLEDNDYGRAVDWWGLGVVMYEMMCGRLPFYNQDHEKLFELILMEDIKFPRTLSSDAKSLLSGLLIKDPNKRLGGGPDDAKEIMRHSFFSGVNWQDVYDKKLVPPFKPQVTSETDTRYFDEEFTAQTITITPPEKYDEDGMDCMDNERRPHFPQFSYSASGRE", "assay": "Inhibition of Akt signalling pathway in human Huh-7 cells assessed as inhibition of Akt phosphorylation at 0.9 to 8.1 uM measured after 48 hrs by Western blotting analysis", "format": "cell-based", "conditions": "dose 0.9-8.1 µM"}, "[27]": {"target": "T1, Serine/threonine-protein kinase AKT (Homo sapiens)", "assay": "Inhibition of Akt signalling pathway in human SK-HEP1 cells assessed as inhibition of Akt phosphorylation at 1.5 to 13.5 uM measured after 48 hrs by Western blotting analysis", "format": "cell-based", "conditions": "dose 1.5-13.5 µM"}, "[28]": {"target": "Serine/threonine-protein kinase mTOR (Homo sapiens) (UniProt P42345)", "assay": "Inhibition of mTOR signalling pathway in human SK-HEP1 cells assessed as inhibition of mTOR phosphorylation at 1.5 to 13.5 uM measured after 48 hrs by Western blotting analysis", "format": "cell-based", "conditions": "dose 1.5-13.5 µM"}, "[29]": {"tested_on": "Huh-7", "assay": "Antitumor activity against human Huh-7 cells xenografted in BALB/c mouse assessed as tumor growth inhibition at 15 mg/kg, ip qd measured after 14 days", "format": "functional", "conditions": "Huh-7, 336 h, time 14 day, read-out: TGI"}, "[30]": {"tested_on": "Huh-7", "assay": "Antitumor activity against human Huh-7 cells xenografted in BALB/c mouse assessed as reduction in tumor weight at 15 to 30 mg/kg, ip qd", "format": "functional, organism-based", "conditions": "dose 15-30 mg/kg, time 14.0 day, TDE = time-dependent effect"}, "[31]": {"tested_on": "Huh-7", "assay": "Antitumor activity against human Huh-7 cells xenografted in BALB/c mouse assessed as reduction in tumor volume at 15 to 30 mg/kg, ip qd", "format": "functional, organism-based", "conditions": "dose 15-30 mg/kg, time 14.0 day, TDE = time-dependent effect"}, "[32]": {"tested_on": "Huh-7", "assay": "Antitumor activity against human Huh-7 cells xenografted in ip dosed BALB/c mouse assessed as reduction in tumor weight measured after 14 days", "format": "functional, organism-based", "conditions": "dose 15-30 mg/kg, time 14.0 day"}, "[33]": {"tested_on": "Huh-7", "assay": "Antitumor activity against human Huh-7 cells xenografted in ip dosed BALB/c mouse assessed as reduction in tumor volume measured after 14 days", "format": "functional, organism-based", "conditions": "dose 15-30 mg/kg, time 14.0 day"}, "[34]": {"assay": "Toxicity in BALB/c mouse xenografted with human Huh-7 cells assessed as change in body weight at 15 to 30 mg/kg, ip qd measured after 14 days", "format": "organism-based", "conditions": "in vivo, 336 h, dose 15-30 mg/kg, time 14 day"}, "[35]": {"assay": "Acute toxicity in BALB/c mouse assessed as mouse survival at 650 mg/kg, ip measured after 14 days", "format": "organism-based", "conditions": "in vivo, 336 h, time 14 day"}, "[36]": {"assay": "Acute toxicity in BALB/c mouse assessed as change in body weight at 650 mg/kg, ip measured after 14 days", "format": "organism-based", "conditions": "in vivo, 336 h, time 14 day"}}, "note": "Active and inactive are the calls of the source. No cut-off for these calls is given here.", "data": [{"smiles": "CC(=O)Oc1ccccc1/C=C/c1nccc2ccccc12", "values": [{"measurement": "IC50", "setting": "[1]", "value": 6.14, "unit": "µM"}, {"measurement": "Activity", "setting": "[2]", "value": "Dose-Dependent Effect"}, {"measurement": "IC50", "setting": "[2]; SK-HEP1, 72 h", "value": 4.2, "unit": "µM"}, {"measurement": "Activity", "setting": "[3]", "value": "Dose-Dependent Effect"}, {"measurement": "IC50", "setting": "[3]; Huh-7, 72 h", "value": 2.52, "unit": "µM"}, {"measurement": "Activity", "setting": "[4]", "value": "Tde"}, {"measurement": "inhibition", "setting": "[5]", "value": "Active"}, {"measurement": "Activity", "setting": "[6]", "value": "Dose-Dependent Effect"}, {"measurement": "Activity", "setting": "[7]", "value": "Dose-Dependent Effect"}, {"measurement": "Activity", "setting": "[8]", "value": "Dose-Dependent Effect"}, {"measurement": "Activity", "setting": "[9]", "value": "Dose-Dependent Effect"}, {"measurement": "inhibition", "setting": "[10]", "value": "Dose-Dependent Effect"}, {"measurement": "inhibition", "setting": "[11]", "value": "Active"}, {"measurement": "inhibition", "setting": "[12]", "value": "Active"}, {"measurement": "Activity", "setting": "[13]", "value": "Active"}, {"measurement": "Activity", "setting": "[14]", "value": "Active"}, {"measurement": "Activity", "setting": "[15]", "value": "Active"}, {"measurement": "Activity", "setting": "[16]", "value": "Active"}, {"measurement": "Activity", "setting": "[17]", "value": "Active"}, {"measurement": "Activity", "setting": "[18]", "value": "Active"}, {"measurement": "Activity", "setting": "[19]", "value": "Active"}, {"measurement": "Activity", "setting": "[20]", "value": "Active"}, {"measurement": "Activity", "setting": "[21]", "value": "Active"}, {"measurement": "Activity", "setting": "[22]", "value": "Dose-Dependent Effect"}, {"measurement": "Activity", "setting": "[23]", "value": "Active"}, {"measurement": "Activity", "setting": "[24]", "value": "Dose-Dependent Effect"}, {"measurement": "Activity", "setting": "[25]", "value": "Active"}, {"measurement": "inhibition", "setting": "[26]", "value": "Active"}, {"measurement": "inhibition", "setting": "[27]", "value": "Active"}, {"measurement": "inhibition", "setting": "[28]", "value": "Active"}, {"measurement": "inhibition in vivo at 15 mg/kg", "setting": "[29]", "value": 27.4, "unit": "%"}, {"measurement": "Activity", "setting": "[30]", "value": "Tde"}, {"measurement": "Activity", "setting": "[31]", "value": "Tde"}, {"measurement": "Activity", "setting": "[32]", "value": "Dose-Dependent Effect"}, {"measurement": "Activity", "setting": "[33]", "value": "Dose-Dependent Effect"}, {"measurement": "Activity", "setting": "[34]", "value": "Non-Toxic"}, {"measurement": "Activity", "setting": "[35]", "value": "Non-Toxic"}, {"measurement": "Activity", "setting": "[36]", "value": "Non-Toxic"}]}]}
